Results: PubChem BioAssay AID1963826 (Molecular Pharmacology Branch, DTP, NCI, 2024)

Tested on: 926638-142-R-J1-PDC complex spheroid viability
Test: Anticancer human tumor 926638-142-R-J1-PDC patient-derived endometrial carcinoma cell line growth inhibition [POLQ]
Settings: for IC50: curve of first compound; for viability, T/C: stronger effect = lower value
How it was run: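 Patient-derived tumour cells were co-cultured with HUVEC and mesenchymal stem cells as multicellular spheroids at 37 °C. They were treated with POLQ inhibitors (novobiocin, ART-558, RP6685) alone or combined with other agents. Top concentrations were at or near clinical Cmax (otherwise 10 microM; SN-38 at 1 microM), decreasing in half-log steps.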

[1] = second compound 0.0316 µM, first compound 0.0316 µM
[2] = second compound 0.0316 µM, first compound 0.1 µM
[3] = second compound 0.0316 µM, first compound 0.316 µM
[4] = second compound 0.0316 µM, first compound 1 µM
[5] = second compound 0.0316 µM, first compound 3.16 µM
[6] = second compound 0.0316 µM, first compound 10 µM
[7] = second compound 0.1 µM, first compound 0.0316 µM
[8] = second compound 0.1 µM, first compound 0.1 µM
[9] = second compound 0.1 µM, first compound 0.316 µM
[10] = second compound 0.1 µM, first compound 1 µM
[11] = second compound 0.1 µM, first compound 3.16 µM
[12] = second compound 0.1 µM, first compound 10 µM
[13] = second compound 0.316 µM, first compound 0.0316 µM
[14] = second compound 0.316 µM, first compound 0.1 µM
[15] = second compound 0.316 µM, first compound 0.316 µM
[16] = second compound 0.316 µM, first compound 1 µM
[17] = second compound 0.316 µM, first compound 3.16 µM
[18] = second compound 0.316 µM, first compound 10 µM
[19] = second compound 1 µM, first compound 0.0316 µM
[20] = second compound 1 µM, first compound 0.1 µM
[21] = second compound 1 µM, first compound 0.316 µM
[22] = second compound 1 µM, first compound 1 µM
[23] = second compound 1 µM, first compound 3.16 µM
[24] = second compound 1 µM, first compound 10 µM
[25] = second compound 3.16 µM, first compound 0.0316 µM
[26] = second compound 3.16 µM, first compound 0.1 µM
[27] = second compound 3.16 µM, first compound 0.316 µM
[28] = second compound 3.16 µM, first compound 1 µM
[29] = second compound 3.16 µM, first compound 3.16 µM
[30] = second compound 3.16 µM, first compound 10 µM
[31] = second compound 10 µM, first compound 0.0316 µM
[32] = second compound 10 µM, first compound 0.1 µM
[33] = second compound 10 µM, first compound 0.316 µM
[34] = second compound 10 µM, first compound 1 µM
[35] = second compound 10 µM, first compound 3.16 µM
[36] = second compound 10 µM, first compound 10 µM
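Also: spheroids exposed to drugs for one week before readout.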
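For viability, T/C in this document: percent viability relative to DMSO vehicle control wells set as 100%.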

`COc1ccc([C@@H](O)c2cc(-c3ncnc4cc(N5CCOCC5)ccc34)c(F)cc2Cl)nn1` + Cc1cccc(N(C)C(=O)C2C(O)CCN2c2nc(C)cc(C(F)(F)F)c2C#N)c1 showed an IC50 (second compound 0.0316 µM) of 459 nM, an IC50 (second compound 0.1 µM) of 546 nM and an IC50 (second compound 0.316 µM) of 399 nM. The IC50 (second compound 1 µM) was 493 nM, the IC50 (second compound 3.16 µM) was 484 nM and the IC50 (second compound 10 µM) was 415 nM. The viability, T/C [1] was 76.7%, the viability, T/C [2] was 93.2% and the viability, T/C [3] was 58.1%. It also gave a viability, T/C [4] of 26.9%, a viability, T/C [5] of 12.9% and a viability, T/C [6] of 7.35%. It also gave a viability, T/C [7] of 99%, a viability, T/C [8] of 80.7% and a viability, T/C [9] of 74.2%. For the same compound, the viability, T/C [10] was 24.3%, the viability, T/C [11] was 11.5% and the viability, T/C [12] was 9.24%. For the same compound, the viability, T/C [13] was 77.3%, the viability, T/C [14] was 71.1% and the viability, T/C [15] was 57.2%. The viability, T/C [16] was 24.6%, the viability, T/C [17] was 13.3% and the viability, T/C [18] was 7.22%. It also gave a viability, T/C [19] of 107%, a viability, T/C [20] of 89.7% and a viability, T/C [21] of 65.9%. The viability, T/C [22] was 26.8%, the viability, T/C [23] was 14.7% and the viability, T/C [24] was 9.12%. For the same compound, the viability, T/C [25] was 83.5%, the viability, T/C [26] was 88.1% and the viability, T/C [27] was 57.8%. It also gave a viability, T/C [28] of 32.7%, a viability, T/C [29] of 12.2% and a viability, T/C [30] of 9.15%. For the same compound, the viability, T/C [31] was 76.5%, the viability, T/C [32] was 94% and the viability, T/C [33] was 56%. For the same compound, the viability, T/C [34] was 24%, the viability, T/C [35] was 12.9% and the viability, T/C [36] was 9.62%.
`CCc1cc2c(N3CCc4c(cc(Cn5ccnc5)cc4-c4cn(C)nc4C(F)(F)F)C3=O)ccnc2c(OC)n1` + Cc1cccc(N(C)C(=O)C2C(O)CCN2c2nc(C)cc(C(F)(F)F)c2C#N)c1 showed an IC50 (second compound 0.0316 µM) of 287 nM, an IC50 (second compound 0.1 µM) of 356 nM and an IC50 (second compound 0.316 µM) of 1290 nM. For the same compound, the IC50 (second compound 1 µM) was 346 nM, the IC50 (second compound 3.16 µM) was 483 nM and the IC50 (second compound 10 µM) was 379 nM. For the same compound, the viability, T/C [1] was 76.8%, the viability, T/C [2] was 74.5% and the viability, T/C [3] was 46.7%. It also gave a viability, T/C [4] of 44.8%, a viability, T/C [5] of 38.6% and a viability, T/C [6] of 29.6%. It also gave a viability, T/C [7] of 112%, a viability, T/C [8] of 70.1% and a viability, T/C [9] of 48.3%. The viability, T/C [10] was 45.5%, the viability, T/C [11] was 41.8% and the viability, T/C [12] was 29.1%. The viability, T/C [13] was 70.8%, the viability, T/C [14] was 66.1% and the viability, T/C [15] was 59%. It also gave a viability, T/C [16] of 55%, a viability, T/C [17] of 40% and a viability, T/C [18] of 26.7%. The viability, T/C [19] was 83.4%, the viability, T/C [20] was 59.4% and the viability, T/C [21] was 47%. The viability, T/C [22] was 52.7%, the viability, T/C [23] was 37.3% and the viability, T/C [24] was 33%. For the same compound, the viability, T/C [25] was 87.1%, the viability, T/C [26] was 70.9% and the viability, T/C [27] was 55.5%. For the same compound, the viability, T/C [28] was 40.9%, the viability, T/C [29] was 32.1% and the viability, T/C [30] was 25.7%. It also gave a viability, T/C [31] of 85.9%, a viability, T/C [32] of 59.4% and a viability, T/C [33] of 58.4%. For the same compound, the viability, T/C [34] was 36.7%, the viability, T/C [35] was 34.2% and the viability, T/C [36] was 23.6%.
`CC1COCCN1c1cc(-c2ccnn2C)c2ccnc(-c3ccn[nH]3)c2n1` (stereo unspecified) + Nc1ccc(C#CCN(C(=O)Cc2ncc(C(F)(F)F)cc2C(F)(F)F)c2ccc(F)cc2)nn1 showed an IC50 (second compound 0.0316 µM) of 503 nM, an IC50 (second compound 0.1 µM) of 386 nM and an IC50 (second compound 0.316 µM) of 377 nM. The IC50 (second compound 1 µM) was 285 nM, the IC50 (second compound 3.16 µM) was 357 nM and the IC50 (second compound 10 µM) was 369 nM. It also gave a viability, T/C [1] of 101%, a viability, T/C [2] of 83.7% and a viability, T/C [3] of 60.3%. It also gave a viability, T/C [4] of 36.7%, a viability, T/C [5] of 14% and a viability, T/C [6] of 9.34%. The viability, T/C [7] was 108%, the viability, T/C [8] was 85.9% and the viability, T/C [9] was 50.5%. It also gave a viability, T/C [10] of 33.7%, a viability, T/C [11] of 14.1% and a viability, T/C [12] of 9.21%. For the same compound, the viability, T/C [13] was 104%, the viability, T/C [14] was 84.7% and the viability, T/C [15] was 54.5%. It also gave a viability, T/C [16] of 26.7%, a viability, T/C [17] of 16.8% and a viability, T/C [18] of 10.1%. It also gave a viability, T/C [19] of 99.7%, a viability, T/C [20] of 69.6% and a viability, T/C [21] of 51.7%. It also gave a viability, T/C [22] of 27.5%, a viability, T/C [23] of 14.3% and a viability, T/C [24] of 9.7%. It also gave a viability, T/C [25] of 89.8%, a viability, T/C [26] of 73.6% and a viability, T/C [27] of 53.9%. It also gave a viability, T/C [28] of 28.6%, a viability, T/C [29] of 16.7% and a viability, T/C [30] of 8.56%. The viability, T/C [31] was 73.3%, the viability, T/C [32] was 74.5% and the viability, T/C [33] was 52.5%. The viability, T/C [34] was 25.7%, the viability, T/C [35] was 15.1% and the viability, T/C [36] was 9.63%.
